We go through 63 compounds from a melting point compilation (Tetko et al.; mined from patent text by program, amines drawn as free bases though some values may be those of a salt).

Bounds are passed on as bounds.

One may read the melting point as the temperature, or range, at which the solid turns liquid.

`O=C(NCCCc1ccncc1)N(CCC12CC3CC(CC(C3)C1)C2)Cc1cccs1`: the melting point was 142 to 144 °C.

On to `C[C@@H](n1cnc2cc(C(N)=O)ccc2c1=O)[C@](O)(Cn1cncn1)c1ccc(F)cc1F`, for which the melting point lay in the range of 235 to 236 °C.

In the case of `CC(C)(CN)c1ccc(-n2c(-c3cc(-c4cnc5ccccc5c4)ccn3)c[nH]c2=O)cc1`, the melting point is 244 to 247 °C.

`CCN(C(=O)N1CCN(c2cc(OC)cc(OC)c2)CC1)c1nc2ccccc2nc1OC` gave a melting point of 129 to 130 °C.

Regarding `NCC1Cc2cc(-c3ccccc3)cc(-c3cccc(F)c3)c2O1` (stereo not drawn), the melting point is greater than 250 °C.

As to `CC(C)OC(=O)C1=C2SCC(=CC(=O)Sc3ccccc3)N2CC1`, the melting point fell in the range of 216 to 220 °C.

Consider `CCCC(C)(O)C(=O)Nc1cc(Br)[nH]c(=O)c1` (stereo not drawn), for which the melting point amounted to 188 °C.

`CCCCc1nc2c(N)nc3ccccc3c2n1CCCCS(C)(=O)=O`: the melting point lay within 164 to 165 °C.

Consider `Cc1n[nH]c2cc(-c3nn(C(C)c4oc5ccc(F)cc5c(=O)c4-c4cccc(F)c4)c4ncnc(N)c34)ccc12` (stereo not drawn), for which the melting point fell in the range of 234 to 236 °C.

As to `C[C@@H]1NCC[C@@H]1C(C)(C)O`, the melting point fell in the range of 120 to 122 °C.

The compound `COc1cncc(-c2cncc(OC3SCC(O)C(O)C3O)c2)c1` (stereo not drawn) registered a melting point of 193 °C.

`N#Cc1ccc(OCCNc2ccc(C(=O)O)cc2)c2ccccc12` returned a melting point of 254 to 256 °C.

Turning to `COc1ccccc1N1CCN(CCn2c(=O)c3cscc3n(C(C)=O)c2=O)CC1`, the melting point was 128 to 129 °C.

`C#CC(CC(=O)O)c1ccc(OC)c(OC2CCCC2)c1` (racemic): the melting point was 101 to 102 °C.

For `CCC(=O)Oc1cccc2c(-c3ccccc3)c3cccc(OC(=O)CC)c3c(OC(=O)CC)c12`, the melting point came to 216 °C.

Take `OCC(O)COc1ccc(NNC(c2ccccc2)(c2ccccc2)c2ccccc2)nn1` (racemic): the melting point is 174 to 176 °C.

For `O=C(O)c1ccc2c(c1)C(=O)CC(c1ccccc1)=N2`, the melting point is greater than 300 °C.

`COc1ccc(C(=O)OC2C=C(C)C(=O)CC(C)(C)C2O)cc1` (stereo not drawn) came in with a melting point of 108 to 110 °C.

As to `O=[N+]([O-])c1ccc(C2OCCc3cc4c(cc32)OCO4)cc1` (stereo not drawn), the melting point was in the range of 149 to 150 °C.

Take `O=C1Oc2ccc(Cl)cc2C2=c3ccccc3=NCC12` (stereo not drawn): the melting point is greater than 350 °C.

Compound `CCN1C(=O)CC(C)(C)c2ccc(C#N)cc21` yielded a melting point of 120 to 121 °C.

Compound `Clc1ccc(-n2cccn2)cc1` displayed a melting point of 50 to 53 °C.

In turn, `OC(Cc1ccccc1)Cc1ccccc1` had a melting point of 107 to 109 °C.

The compound `FC(F)(F)C(F)(F)CCCSCCCCCOc1ccc(C2=C(c3ccccc3)CCCc3ccccc32)cc1` had a melting point of 84 to 85 °C.

As for `CCCCCC(=O)C=Cc1ccc(O)c(O)c1`, the melting point was 130 to 131 °C.

`C=C=COc1ccc2ccc(OC=C=C)cc2c1` registered a melting point of 80.5 to 83.5 °C.

`Cc1c(-c2ccccc2)oc2c(C(=O)CBr)cccc2c1=O` came in with a melting point of 134 to 135 °C.

In turn, `CC(=O)N1CCN(c2c(-c3ccccc3)sc3ccccc23)CC1` displayed a melting point of 167 to 169 °C.

For the compound `O[C@@H](CNCCOc1ccc2oc(-c3noc(C(F)(F)F)n3)cc2c1)COc1ccccc1`, the melting point is 108 to 113 °C.

Compound `CC1(C)OC(c2ccc(S(C)(=O)=O)cc2)=C(c2cc(F)cc(F)c2)C1=O` came in with a melting point of 141 to 142 °C.

Take `COc1ccc2c(c1)C(c1ccc(OCCN(C)C)cc1)c1c-2ccc2ccccc12` (stereo not drawn): the melting point was 159 to 160 °C.

For `OCC#Cc1ccc(F)cc1`, the melting point is 32 to 33 °C.

Regarding `C=C(C)Cc1cc(NC(C)=O)c(C)c(C)c1O`, the melting point was in the range of 149 to 151 °C.

Turning to `O=S(=O)(c1ccc(O)c(Br)c1)N1c2ccc(Br)cc2-c2ccccc2C1c1ccccc1` (stereo not drawn), the melting point is 237 to 239 °C.

As for `O=C(OCCN1CCNC1=Nc1ccccc1N1CCOCC1)c1ccccc1`, the melting point lay within 92 to 94 °C.

In turn, `Cc1cc(N2CCN(c3ccc(C(F)(F)F)cn3)CC2)cc(C)c1O` showed a melting point of 143 to 144 °C.

`Cc1ccccc1C(=O)Nc1ccc(C(=O)N2CCCC(N(C)C(=O)c3ccccc3)c3ccccc32)cc1` (stereo not drawn): the melting point fell in the range of 248 to 249 °C.

The compound `CNC(=NC#N)NCCSCc1csc(NC(=N)N)n1` yielded a melting point of 159 to 161 °C.

For the compound `CC(=O)OCC1OC(Cl)C(N=[N+]=[N-])C(OC(C)=O)C1OC1OC(COC(C)=O)C(OC(C)=O)C(OC(C)=O)C1OC(C)=O` (stereo not drawn), the melting point was 167 to 168 °C.

In turn, `CCC(=O)SCC(Cc1ccccc1)C(=O)Nc1cccc(C(=O)O)c1C` (stereo not drawn) had a melting point of 163 to 165 °C.

Compound `CC1C(=O)Nc2c(Oc3ccccc3Cl)cccc21` (stereo not drawn) came in with a melting point of 138 to 139 °C.

As to `O=Cc1c(-c2ccccc2)nc2sc3c(n12)CCCC3`, the melting point stood at 150 °C.

In the case of `COC(=O)Cc1cccc2c1Sc1ccccc1S2`, the melting point is 124 to 125 °C.

Take `Cc1c(F)c(N2CCNC(C)C2)c(F)c2c1c(=O)c(C(=O)O)cn2C1CC1` (stereo not drawn): the melting point fell in the range of 187 to 188 °C.

The compound `O=C(NC(=O)c1c(F)cccc1F)Nc1cc(F)c(C(F)(F)F)c(F)c1` returned a melting point of 231 °C.

The compound `O=C(NCc1ccccn1)c1cc(OCC(F)(F)F)ccc1OCC(F)(F)F` came in with a melting point of 100 to 103 °C.

Compound `O=C(Oc1ccccc1N1c2ccccc2S(=O)(=O)c2ccccc21)c1ccccc1` showed a melting point of 228 to 232 °C.

On to `CC(=O)N1CCc2nc(C)nc(-c3ccc(Cl)cc3)c2C1`, for which the melting point was in the range of 139 to 141 °C.

Compound `Nc1nonc1-c1nc2ccccc2n1COc1ccc(F)cc1` had a melting point of 155 to 158 °C.

`Cc1ccc2cc(C=O)ccc2c1` showed a melting point of 110 to 111 °C.

On to `Cc1cc(=O)n2cccc(OCC=Cc3ccccc3)c2n1`, for which the melting point fell in the range of 154 to 155 °C.

In the case of `O=c1c2cc3ccccc3cc2nc(CSc2ncnc3[nH]cnc23)n1-c1ccccc1Cl`, the melting point was in the range of 248 to 254 °C.

For the compound `O=C(O)CC1CCCc2c1n(Cc1ccc(Cl)cc1)c1c(F)cc(F)cc21` (stereo not drawn), the melting point lay in the range of 130 to 131 °C.

As to `Clc1ccc(-c2cccnc2)cn1`, the melting point lay within 113 to 115 °C.

Consider `Cn1c(=O)cc(C(N)=S)c2cc(C(=O)c3ccc(Cl)cc3)ccc21`, for which the melting point was 210 °C.

As for `CCN1C(=O)C(C)(C)C(=O)N(C)c2cc(CCN(CCn3cc(C)c4oc(C)cc4c3=O)Cc3cnccc3C)ccc21`, the melting point lay in the range of 155 to 156 °C.

As to `Cc1cn2c(=O)c(C(=O)O)cnc2c2cc(N)ccc12`, the melting point was greater than 300 °C.

For the compound `O=C(NCCc1c[nH]c2ccccc12)c1cccnc1`, the melting point fell in the range of 150 to 152 °C.

As for `Cc1c(C)c2c(c(C)c1N)CC(C)(CN1CCC(NC(c3ccc(F)cc3)c3ccc(F)cc3)CC1)O2` (stereo not drawn), the melting point fell in the range of 133 to 134 °C.

Compound `O=C(c1ccccc1Cl)c1cc(Cl)ccc1C(=O)C(Br)CN1C(=O)c2ccccc2C1=O` (stereo not drawn) came in with a melting point of 178 to 179 °C.

Take `Cc1c(=O)n(Cc2ccccc2)c(=O)n2cc(C(=O)NCc3ccc(Cl)c(Cl)c3)sc12`: the melting point was in the range of 180 to 182 °C.

Regarding `COC(=O)c1cc(Cl)cc(C(=O)OC)n1`, the melting point is 132 to 134 °C.

`O=C(O)C(=O)c1ccc(OCc2ccc3ccccc3c2)cc1`: the melting point was 145 to 146 °C.
